Target: PAS domain-containing serine/threonine-protein kinase (Homo sapiens, UniProt Q96RG2)
Test: Inhibition of purified human PASK kinase domain expressed in insect cells incubated for 10 mins using MBP protein by kinase-Glo luminescent kinase assay

Chain of PAS domain-containing serine/threonine-protein kinase (Q96RG2 whole entry, the tested form may be a part): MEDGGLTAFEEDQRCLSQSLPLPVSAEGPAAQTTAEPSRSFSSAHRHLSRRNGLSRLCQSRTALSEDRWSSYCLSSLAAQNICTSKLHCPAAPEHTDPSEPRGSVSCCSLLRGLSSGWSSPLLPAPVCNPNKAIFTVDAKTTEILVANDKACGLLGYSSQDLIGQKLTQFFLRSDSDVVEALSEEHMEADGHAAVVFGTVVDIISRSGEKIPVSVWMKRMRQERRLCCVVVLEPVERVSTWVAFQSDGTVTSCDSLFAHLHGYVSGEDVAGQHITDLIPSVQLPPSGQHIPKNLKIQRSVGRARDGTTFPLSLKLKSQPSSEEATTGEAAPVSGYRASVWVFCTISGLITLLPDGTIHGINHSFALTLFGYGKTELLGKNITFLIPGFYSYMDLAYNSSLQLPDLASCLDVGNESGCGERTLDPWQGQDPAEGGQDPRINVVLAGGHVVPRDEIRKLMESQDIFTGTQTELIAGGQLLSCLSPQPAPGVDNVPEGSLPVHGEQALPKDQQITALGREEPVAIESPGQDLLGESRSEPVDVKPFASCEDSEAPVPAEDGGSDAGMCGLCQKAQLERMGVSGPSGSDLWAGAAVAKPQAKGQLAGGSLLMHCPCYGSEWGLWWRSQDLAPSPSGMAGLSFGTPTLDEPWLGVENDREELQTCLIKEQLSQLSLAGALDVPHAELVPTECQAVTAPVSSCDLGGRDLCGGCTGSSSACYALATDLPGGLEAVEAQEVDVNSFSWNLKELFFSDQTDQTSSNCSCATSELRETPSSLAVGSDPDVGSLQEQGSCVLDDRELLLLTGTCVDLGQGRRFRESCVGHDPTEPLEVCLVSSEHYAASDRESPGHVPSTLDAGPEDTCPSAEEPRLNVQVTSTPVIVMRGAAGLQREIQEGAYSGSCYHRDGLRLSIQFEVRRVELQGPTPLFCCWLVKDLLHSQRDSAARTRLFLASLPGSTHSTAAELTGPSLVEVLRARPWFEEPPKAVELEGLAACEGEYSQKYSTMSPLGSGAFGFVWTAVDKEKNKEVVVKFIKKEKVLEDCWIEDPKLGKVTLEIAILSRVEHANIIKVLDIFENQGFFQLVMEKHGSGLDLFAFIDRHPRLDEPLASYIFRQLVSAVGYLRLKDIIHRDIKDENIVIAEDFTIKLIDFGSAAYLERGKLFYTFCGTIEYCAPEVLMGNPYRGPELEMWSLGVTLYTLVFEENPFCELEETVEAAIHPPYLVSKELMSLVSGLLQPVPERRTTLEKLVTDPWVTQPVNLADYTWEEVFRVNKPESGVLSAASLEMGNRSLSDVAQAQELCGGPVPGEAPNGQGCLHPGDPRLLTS

IC50: ≤ 10 µM
Compound: O=c1cc(-c2ccc3c(c2)OCO3)[nH]c2c(-c3ccccn3)cnn12

From ChEMBL document CHEMBL4476863, “Heterocyclic compounds for the inhibition of pask” (2012)
